Experimental data from US11292802B2, “Substituted tetrahydropyrrolo[1,2-a]pyrazines as alpha v integrin inhibitors” (BRISTOL-MYERS SQUIBB COMPANY, priority 2017, dated 2022).

Molecular target: T1, human αVβ6 (Homo sapiens, UniProt P06756+P18564)
T1 construct: purchased R & D systems 3817-AV
Experiment: human αVβ6 HTRF binding assay
Settings: biotinylated recombinant human αVβ6 integrin 1.25 nM, FITC-conjugated fibronectin 5 nM
Method: All binding assays used the HTRF (homogeneous time resolved fluorescence) technology from Cisbio International, therefore all assays are described as HTRF binding assays. The assay results for the Examples are listed in Table 1, exemplified by human αVβ6 (?). The HTRF binding assays are established for the following integrins: human αVβ6, human αVβ1, human αVβ3, human αVβ5, and human αVβ8. All assays used the following assay buffer: 20 mM Tris, pH 7.4, 1 mM MgCl2, 1 mM MnCl2, 0.01% Tween 20, and 0.01% BSA. Alternatively, a SPA-based assay was used for evaluation of receptor binding.
[…]

T1 sequence (P06756 31-992 limits assumed): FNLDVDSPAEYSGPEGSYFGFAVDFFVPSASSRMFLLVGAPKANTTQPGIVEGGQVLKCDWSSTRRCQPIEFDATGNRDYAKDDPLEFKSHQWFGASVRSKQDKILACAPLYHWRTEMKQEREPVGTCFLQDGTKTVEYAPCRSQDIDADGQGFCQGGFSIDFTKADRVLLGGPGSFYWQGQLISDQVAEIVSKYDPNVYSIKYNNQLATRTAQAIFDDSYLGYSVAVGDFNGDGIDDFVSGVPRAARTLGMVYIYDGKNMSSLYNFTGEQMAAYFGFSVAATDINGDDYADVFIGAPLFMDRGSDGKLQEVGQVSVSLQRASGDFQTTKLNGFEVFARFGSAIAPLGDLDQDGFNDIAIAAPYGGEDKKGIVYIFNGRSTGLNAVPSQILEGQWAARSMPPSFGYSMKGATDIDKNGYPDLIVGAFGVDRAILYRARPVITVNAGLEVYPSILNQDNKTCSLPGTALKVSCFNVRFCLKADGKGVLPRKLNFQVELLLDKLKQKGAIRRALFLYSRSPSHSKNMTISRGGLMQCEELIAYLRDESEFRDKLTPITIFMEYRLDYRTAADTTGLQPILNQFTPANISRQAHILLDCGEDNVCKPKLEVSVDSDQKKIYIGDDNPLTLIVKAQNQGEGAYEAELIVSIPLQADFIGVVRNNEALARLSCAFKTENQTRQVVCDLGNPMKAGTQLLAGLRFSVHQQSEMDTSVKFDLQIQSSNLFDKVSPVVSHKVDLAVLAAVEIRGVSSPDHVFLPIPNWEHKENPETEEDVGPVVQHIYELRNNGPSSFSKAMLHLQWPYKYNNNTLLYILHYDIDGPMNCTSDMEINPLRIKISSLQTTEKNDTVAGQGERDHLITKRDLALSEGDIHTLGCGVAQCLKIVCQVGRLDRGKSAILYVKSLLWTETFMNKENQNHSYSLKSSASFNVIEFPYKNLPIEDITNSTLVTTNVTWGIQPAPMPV
T1 sequence (P18564 22-707 limits assumed): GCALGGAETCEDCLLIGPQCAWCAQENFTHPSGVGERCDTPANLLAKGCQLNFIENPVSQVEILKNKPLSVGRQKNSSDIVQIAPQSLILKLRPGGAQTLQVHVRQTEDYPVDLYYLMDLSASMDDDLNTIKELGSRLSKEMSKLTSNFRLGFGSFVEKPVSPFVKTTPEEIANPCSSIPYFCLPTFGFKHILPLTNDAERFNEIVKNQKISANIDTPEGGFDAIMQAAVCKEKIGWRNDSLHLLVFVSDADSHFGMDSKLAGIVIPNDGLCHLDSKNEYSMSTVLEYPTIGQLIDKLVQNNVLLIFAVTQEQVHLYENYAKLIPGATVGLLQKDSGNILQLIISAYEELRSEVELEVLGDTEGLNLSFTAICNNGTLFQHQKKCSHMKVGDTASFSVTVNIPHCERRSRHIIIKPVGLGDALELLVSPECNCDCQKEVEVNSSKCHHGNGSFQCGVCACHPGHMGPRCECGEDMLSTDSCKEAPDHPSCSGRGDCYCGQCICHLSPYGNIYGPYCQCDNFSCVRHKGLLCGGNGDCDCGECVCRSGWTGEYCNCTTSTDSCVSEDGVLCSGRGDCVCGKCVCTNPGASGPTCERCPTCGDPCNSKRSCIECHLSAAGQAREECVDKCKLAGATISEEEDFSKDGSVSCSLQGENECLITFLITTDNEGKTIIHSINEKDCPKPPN

Compound	IC50 [nM]
COc1ccc([C@H](CC(=O)O)N2CCn3cc(CCC4CCc5cccnc5N4)cc3C2=O)cn1 (single isomer, unassigned) [Example 11]	2.3
COc1ccc([C@H](CC(=O)O)N2CCn3cc(CCc4ccc5c(n4)NCCC5)cc3C2=O)cc1F [Example 1, (S)-3-(3-Fluoro-4-methoxyphenyl)-3-(1-oxo-7-(2-(5,6,7,8-tetrahydro-1,8-naphthyridin-2-yl)ethyl)-3,4-dihydropyrrolo[1,2-a]pyrazin-2(1H)-yl)propanoic acid]	3.2
COc1ccc([C@H](CC(=O)O)N2CCn3cc(CCc4ccc5c(n4)NCCC5)cc3C2=O)cn1 [Example 3, (S)-3-(6-Methoxypyridin-3-yl)-3-(1-oxo-7-(2-(5,6,7,8-tetrahydro-1,8-naphthyridin-2-yl)ethyl)-3,4-dihydropyrrolo[1,2-a]pyrazin-2(1H)-yl)propanoic acid]	2.4
CC(C)(C)c1cc(Br)cc([C@H](CC(=O)O)N2CCn3cc(CCc4ccc5c(n4)NCCC5)cc3C2=O)c1 [Example 5]	0.59
O=C(O)C[C@@H](c1cc(Cl)cc(Cl)c1)N1CCn2cc(CCc3ccc4c(n3)NCCC4)cc2C1=O [Example 6]	0.98
Cc1cc(C)c(S(=O)(=O)N[C@@H](CN2CCn3cc(CCc4ccc5c(n4)NCCC5)cc3C2=O)C(=O)O)c(C)c1 [Example 8]	25
COc1ccc([C@H](CC(=O)O)N2CCn3cc(C(Cc4ccc5c(n4)NCCC5)Cc4ccc5c(n4)NCCC5)cc3C2=O)cc1F [Example 10]	1.3
Cc1ncc(C(CC(=O)O)N2CCn3cc(CCc4ccc5c(n4)NCCC5)cc3C2=O)cn1 (stereo not shown) [Example 13]	7.2
O=C(O)CC(c1cncnc1)N1CCn2cc(CCc3ccc4c(n3)NCCC4)cc2C1=O (stereo not shown) [Example 15]	23
O=C(O)C[C@@H](c1ccc2c(c1)OCC2)N1CCn2cc(CCc3ccc4c(n3)NCCC4)cc2C1=O [Example 17]	2.6
COc1ncc([C@H](CC(=O)O)N2CCn3cc(CCCc4ccc5c(n4)NCCC5)cc3C2=O)cn1 [Example 20]	3.4
Cc1ncc([C@H](CC(=O)O)N2CCn3cc(CCCc4ccc5c(n4)NCCC5)cc3C2=O)cn1 [Example 21]	5.6
CC(C)COc1ccc([C@H](CC(=O)O)N2CCn3cc(CCc4ccc5c(n4)NCCC5)cc3C2=O)cn1 [Example 22, (S)-3-(6-Isobutoxypyridin-3-yl)-3-(1-oxo-7-(2-(5,6,7,8-tetrahydro-1,8-naphthyridin-2-yl)ethyl)-3,4-dihydropyrrolo[1,2-a]pyrazin-2(1H)-yl)propanoic acid]	1.6
CCOc1ccc([C@H](CC(=O)O)N2CCn3cc(CCc4ccc5c(n4)NCCC5)cc3C2=O)cn1 [Example 23, (S)-3-(6-Ethoxypyridin-3-yl)-3-(1-oxo-7-(2-(5,6,7,8-tetrahydro-1,8-naphthyridin-2-yl)ethyl)-3,4-dihydropyrrolo[1,2-a]pyrazin-2(1H)-yl)propanoic acid]	1.6
O=C(N[C@@H](CN1CCn2cc(CCc3ccc4c(n3)NCCC4)cc2C1=O)C(=O)O)OCc1ccccc1 [Example 25, (S)-2-(((Benzyloxy)carbonyl)amino)-3-(1-oxo-7-(2-(5,6,7,8-tetrahydro-1,8-naphthyridin-2-yl)ethyl)-3,4-dihydropyrrolo[1,2-a]pyrazin-2(1H)-yl)propanoic acid]	4.6
COc1ccc([C@H](CC(=O)O)N2CCn3cc(Cc4ccc5c(n4)NCCC5)cc3C2=O)cc1F [Example 29, (S)-3-(3-Fluoro-4-methoxyphenyl)-3-(1-oxo-7-((5,6,7,8-tetrahydro-1,8-naphthyridin-2-yl)methyl)-3,4-dihydropyrrolo[1,2-a]pyrazin-2(1H)-yl)propanoic acid]	0.73
COc1ccc([C@H](CC(=O)O)N2CCn3cc(CCCCc4ccc5c(n4)NCCC5)cc3C2=O)cc1F [Example 31, (S)-3-(3-Fluoro-4-methoxyphenyl)-3-(1-oxo-7-(4-(5,6,7,8-tetrahydro-1,8-naphthyridin-2-yl)butyl)-3,4-dihydropyrrolo[1,2-a]pyrazin-2(1H)-yl)propanoic acid]	12
(S)-3-(3-Fluoro-4-methoxyphenyl)-3-(1-oxo-7-(4-(5,6,7,8-tetrahydro-1,8-naphthyridin-2-yl)butyl)-3,4-dihydropyrrolo[1,2-a]pyrazin-2(1H)-yl)propanoic acid, TFA [Example 32]	410

Further compounds by falling IC50, results first:

IC50 [nM]	Compound
340	COc1ccc([C@H](CC(=O)O)N2CCn3cc(-c4ccc5c(n4)NCCC5)cc3C2=O)cc1F [Example 28, (S)-3-(3-Fluoro-4-methoxyphenyl)-3-(1-oxo-7-(5,6,7,8-tetrahydro-1,8-naphthyridin-2-yl)-3,4-dihydropyrrolo[1,2-a]pyrazin-2(1H)-yl)propanoic acid]
140	O=C(O)CC(c1cnc2ccccc2n1)N1CCn2cc(CCc3ccc4c(n3)NCCC4)cc2C1=O (stereo not shown) [Example 18]
80	COc1ccc([C@@H](CC(=O)O)N2CCn3cc(CCc4ccc5c(n4)NCCC5)cc3C2=O)cc1F [Example 4]
69	COc1ccc([C@H](CC(=O)O)N2CCn3c(cc(CCc4ccc5c(n4)NCCC5)c3C)C2=O)cc1F [Example 7]
53	COc1ccc([C@H](CC(=O)O)N2CCn3c(cc(CCc4ccc5c(n4)NCCC5)c3I)C2=O)cc1F [Example 26, (S)-3-(3-Fluoro-4-methoxyphenyl)-3-(6-iodo-1-oxo-7-(2-(5,6,7,8-tetrahydro-1,8-naphthyridin-2-yl)ethyl)-3,4-dihydropyrrolo[1,2-a]pyrazin-2(1H)-yl)propanoic acid]
6.5	O=C(O)C[C@@H](c1cnc2ccccc2c1)N1CCn2cc(CCCc3ccc4c(n3)NCCC4)cc2C1=O [Example 19]
4.8	O=C(O)C[C@@H](c1ccc(O)c(F)c1)N1CCn2cc(CCc3ccc4c(n3)NCCC4)cc2C1=O [Example 27, (S)-3-(3-Fluoro-4-hydroxyphenyl)-3-(1-oxo-7-(2-(5,6,7,8-tetrahydro-1,8-naphthyridin-2-yl)ethyl)-3,4-dihydropyrrolo[1,2-a]pyrazin-2(1H)-yl)propanoic acid]
3.2	COc1ccc([C@H](CC(=O)O)N2CCn3cc(CCC4CCc5cccnc5N4)cc3C2=O)cn1 (single isomer, unassigned) [Example 12]
1.8	O=C(O)C[C@@H](c1cnc2ccccc2c1)N1CCn2cc(CCc3ccc4c(n3)NCCC4)cc2C1=O [Example 16]
1.6	O=C(O)C[C@@H](c1ccc(OCC2CC2)nc1)N1CCn2cc(CCc3ccc4c(n3)NCCC4)cc2C1=O [Example 24, (S)-3-(6-(Cyclopropylmethoxy)pyridin-3-yl)-3-(1-oxo-7-(2-(5,6,7,8-tetrahydro-1,8-naphthyridin-2-yl)ethyl)-3,4-dihydropyrrolo[1,2-a]pyrazin-2(1H)-yl)propanoic acid]
1.1	COc1ccc([C@H](CC(=O)O)N2CCn3cc(CCCc4ccc5c(n4)NCCC5)cc3C2=O)cn1 [Example 30, (S)-3-(6-Methoxypyridin-3-yl)-3-(1-oxo-7-(3-(5,6,7,8-tetrahydro-1,8-naphthyridin-2-yl)propyl)-3,4-dihydropyrrolo[1,2-a]pyrazin-2(1H)-yl)propanoic acid]
0.6	COc1ccc([C@H](CC(=O)O)N2CCn3cc(CCC4CCc5cccnc5N4)cc3C2=O)cn1 (mixture of isomers) [Example 9]
0.51	COc1ccc([C@H](CC(=O)O)N2CCn3cc(CCC4CCc5cccnc5N4)cc3C2=O)cc1F (mixture of isomers) [Example 2, (3S)-3-(3-Fluoro-4-methoxyphenyl)-3-(1-oxo-7-(2-(1,2,3,4-tetrahydro-1,8-naphthyridin-2-yl)ethyl)-3,4-dihydropyrrolo[1,2-a]pyrazin-2(1H)-yl)propanoic acid]
